{
  "source": "patent US11453647B2",
  "about": "“Benzimidazole derivatives as adenosine receptor antagonists” (Merck Patent GmbH, priority 2017, dated 2022)",
  "origin": "cited, not measured here",
  "data": [
    {"target": "T1, A2B receptors (Homo sapiens, UniProt P29275)", "T1 sequence (P29275 1-332)": "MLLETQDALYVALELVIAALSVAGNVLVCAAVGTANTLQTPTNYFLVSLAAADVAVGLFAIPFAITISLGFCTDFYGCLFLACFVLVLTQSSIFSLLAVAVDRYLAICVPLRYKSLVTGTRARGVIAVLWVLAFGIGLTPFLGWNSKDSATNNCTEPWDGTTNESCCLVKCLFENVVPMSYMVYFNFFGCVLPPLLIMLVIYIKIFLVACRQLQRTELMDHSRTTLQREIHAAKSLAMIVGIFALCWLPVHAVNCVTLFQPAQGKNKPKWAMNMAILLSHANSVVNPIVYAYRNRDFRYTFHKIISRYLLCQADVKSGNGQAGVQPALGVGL", "conditions": "antagonists; cited from earlier work", "values": [
      {"smiles": "CCCn1c(=O)c2[nH]c(-c3ccc(S(=O)(=O)O)cc3)nc2n(CCC)c1=O", "note": "[DPSPX, 1,3-dipropyl-8-sulphophenylxanthine]", "affinities on A2B receptors": "mid to high nM range"},
      {"smiles": "O=c1[nH]c(=O)c2nc3ccccc3nc2[nH]1", "note": "[alloxazine, 2,4-dioxobenzopteridine]", "affinities on A2B receptors": "mid to high nM range"},
      {"smiles": "CCCn1c(=O)[nH]c(=O)c2[nH]cnc21", "note": "[enprofylline, 3-n-propylxanthine]", "affinities on A2B receptors": "mid to high nM range"}
    ]}
  ]
}
